Test results taken from patent publication EP0137083A1, “1,5-Benzothiazepine derivatives and production thereof” (HAMARI YAKUHIN KOGYO KABUSHIKI KAISHA also known as HAMARI …, priority 1983, dated 1985).

Legend:
Format in all cases: in vivo
[1] = tested on: Yeast-induced Pyresis in Rats; assay: Anti-pyretic activity, temperature regulation in yeast-induced pyretic rats; conditions: I.P.; for Rectal Temperature (C^o, Mean+ S.D.), Time after Treatment (hour) 0: 0 hour (just prior to drug administration); for Rectal Temperature (C^o, Mean+ S.D.), Time after Treatment (hour) 0.5: 0.5 hour; for Rectal Temperature (C^o, Mean+ S.D.), Time after Treatment (hour) 1.0: 1.0 hour; for Rectal Temperature (C^o, Mean+ S.D.), Time after Treatment (hour) 1.5: 1.5 hour; for Rectal Temperature (C^o, Mean+ S.D.), Time after Treatment (hour) 2.0: 2.0 hour; for Rectal Temperature, Change C^o: average at 0.5-2.0 hours versus vehicle (39.8)
Protocol: (3) Anti-pyretic Activity (Temperature Regulation in Pyretic Rats) Rats, weighing 220 - 300 g, were treated subcutaneously in the nape of the neck with 6 ml of 40 % suspension of dried Brewer's yeast in distilled water. Groups of 3 rats were treated intraperitoneally with the compound 17 hours challenge. Rectal temperature were recorded with a thermister type thermometer (Type BMA-77 produced by Natsume Seisalusho, Japan) just prior to the drug administration and at 30 minutes intervals for 2 hours.

writhing syndrome = assay: Analgesic activity, mouse anti-writhing method (acetic acid-induced writhing); conditions: mice, I.P., 45 minutes before acetic acid
Protocol: (2) Analgestic Activity (Mouse Anti-Writhing Method)
Groups of 5 mice each, weighing 26 - 32 g, were treated intraperitoneally with the compounds. The method is based on the antagonism of a writhing syndrome (abnormal contraction and twisting of the body) produced by the intraperitoneal injection of 10 ml/kg of 0.7 X acetic acid-saline solution. Ten minutes after the acetic acid injection, the number of writhes observed in a 10 minute counting period was recorded. The compound was administered 45 minutes before the acetic acid injection.

Mice = assay: Minimum lethal dose test in mice (mortality after intraperitoneal dosing); conditions: I.P.; for No. of dead Animals, Day of test 0 / No. of dead Animals, Day of test 1 / No. of dead Animals, Day of test 2 / No. of dead Animals, Total: 2 animals
Protocol: (1) Minimum Lethal Dose Test in Mice
Groups of 2 mice each, weighing 29 - 36 g, were treated intraperitoneally with the compound and observed for signs of - central, autaonomic and toxic responses for 5 hours. Mortality counts were made on days 0, 1 and 2 (day 0 is the dosing day).

[2] = 60 mg/kg, first series (vehicle 10.9 ± 8.9)
[3] = 60 mg/kg, second series (vehicle 12.8 ± 6.3)
[4] = 30 mg/kg, first series (vehicle 10.9 ± 8.9)

SMILES: Cc1c(N(C)C)c(=O)n(-c2ccccc2)n1C [Amino-pyrin, reference compound]
- Rectal Temperature, Average at 0.5-2.0 Hours Post-tretment ([1]; 30 mg/kg): 37.5 C^o
- Rectal Temperature (C^o, Mean+ S.D.), Time after Treatment (hour) 0 ([1]; 30 mg/kg): 39.6±0.10 C^o
- Rectal Temperature (C^o, Mean+ S.D.), Time after Treatment (hour) 0.5 ([1]; 30 mg/kg): 38.1±0.50 C^o
- Rectal Temperature (C^o, Mean+ S.D.), Time after Treatment (hour) 1.0 ([1]; 30 mg/kg): 37.2±0.58 C^o
- Rectal Temperature (C^o, Mean+ S.D.), Time after Treatment (hour) 1.5 ([1]; 30 mg/kg): 37.2±0.53 C^o
- Rectal Temperature (C^o, Mean+ S.D.), Time after Treatment (hour) 2.0 ([1]; 30 mg/kg): 37.4±0.46 C^o
- Rectal Temperature, Change C^o ([1]; 30 mg/kg): -2.3 C^o

SMILES: COc1ccc(C2Sc3ccccc3N(CCN(C)C)C(=O)C2=O)cc1 (centres unmarked) [Ia, 2-(4-methoxyphenyl)-2,3-dihydro-5-(2-dimethylaminoethyl)-1,5-benzothiazepine-3,4(5H)-dione]
- Rectal Temperature, Average at 0.5-2.0 Hours Post-tretment ([1]; 60 mg/kg): 38.7 C^o
- Rectal Temperature (C^o, Mean+ S.D.), Time after Treatment (hour) 0 ([1]; 60 mg/kg): 39.7±0.15 C^o
- Rectal Temperature (C^o, Mean+ S.D.), Time after Treatment (hour) 0.5 ([1]; 60 mg/kg): 38.4±0.57 C^o
- Rectal Temperature (C^o, Mean+ S.D.), Time after Treatment (hour) 1.0 ([1]; 60 mg/kg): 38.4±0.35 C^o
- Rectal Temperature (C^o, Mean+ S.D.), Time after Treatment (hour) 1.5 ([1]; 60 mg/kg): 38.8±0.49 C^o
- Rectal Temperature (C^o, Mean+ S.D.), Time after Treatment (hour) 2.0 ([1]; 60 mg/kg): 39.0±0.51 C^o
- Rectal Temperature, Change C^o ([1]; 60 mg/kg): -1.1 C^o
- % Change from Control (writhing syndrome; [2]): -92.7%
- No. of Writhes (Mean + S.D.) (writhing syndrome; [2]): 0.8 ± 1.3
- % Change from Control (writhing syndrome; [3]): -100.0%
- No. of Writhes (Mean + S.D.) (writhing syndrome; [3]): 0.0 ± 0.0
- No. of dead Animals, Day of test 0 (Mice; 10 mg/kg): 0
- No. of dead Animals, Day of test 1 (Mice; 10 mg/kg): 0
- No. of dead Animals, Day of test 2 (Mice; 10 mg/kg): 0
- No. of dead Animals, Total (Mice; 10 mg/kg): 0
- No. of dead Animals, Day of test 0 (Mice; 30 mg/kg): 0
- No. of dead Animals, Day of test 1 (Mice; 30 mg/kg): 0
- No. of dead Animals, Day of test 2 (Mice; 30 mg/kg): 0
- No. of dead Animals, Total (Mice; 30 mg/kg): 0
- No. of dead Animals, Day of test 0 (Mice; 100 mg/kg): 0
- No. of dead Animals, Day of test 1 (Mice; 100 mg/kg): 0
- No. of dead Animals, Day of test 2 (Mice; 100 mg/kg): 0
- No. of dead Animals, Total (Mice; 100 mg/kg): 0
- No. of dead Animals, Day of test 0 (Mice; 300 mg/kg): 2
- No. of dead Animals, Total (Mice; 300 mg/kg): 2
- Minimum Acute Lethal Dose (Mice; mortality counted on days 0, 1 and 2): 300 mg/kg

SMILES: CC(C)=CCN1CCC2(C)c3cc(O)ccc3CC1C2C (centres unmarked) [Pentazo-cine, reference compound]
- % Change from Control (writhing syndrome; [4]): -83.5%
- No. of Writhes (Mean + S.D.) (writhing syndrome; [4]): 1.8 ± 2.2
